# Measured values: US12383545B1, “Treatment of migraine” (priority 2018, dated 2025)
# Columns and labels:
# Type in all cases: in vivo, human
# [1] = tested on: participants with episodic migraine; test: Study A: Activity Impairment in Migraine-Diary (AIM-D) PDA and PI domain scores; conditions: for AIM-D Performance of Daily Activities domain score, LSMD vs. placebo (95% CI) / AIM-D Physical Impairment domain score, LSMD vs. placebo (95% CI) / AIM-D Performance of Daily Activities domain score, change from baseline, mean (SD) / AIM-D Physical Impairment domain score, LS mean change (SE): across 12 weeks; for AIM-D Performance of Daily Activities domain score, change from baseline, mean (SD) / AIM-D Physical Impairment domain score, LS mean change (SE) / AIM-D Performance of Daily Activities domain score, Month 1-3, mean (SD): mITT; for AIM-D Performance of Daily Activities domain score, Month 1-3, mean (SD): average across 12-week treatment period
# Excerpt: The Activity in Migraine Diary (AIM-D) evaluates the impact of migraine on the performance of daily activities and physical impairment using an electronic daily diary. In particular, the AIM-D is comprised of two domains that evaluate Performance of Daily Activities (PDA) and Physical Impairment (PI). Assessed items for the AIM-D PDA domain include household chores, errands, leisure activities at home, social or leisure activities outside the home, strenuous physical activities, concentration, and thinking clearly. Assessed items for the AIM-D PI Domain include walking, moving one's body, bending forward, and moving one's head. Response options for each item range from “not difficult at all” to “I could not do it at all” on a 6-point rating scale. The AIM-D domain scores are scaled from 0-100, with higher scores indicating greater impact of migraine, and reductions from baseline in scores indicate improvement. See Cala et al., The Activity Impairment in Migraine-Diary (AIM-D): A Novel Migraine-Specific Patient-Reported Outcome Measure to Assess Functioning Based on Activity Impairment in Episodic and Chronic Migraine Patients, MTIS2018-005 (Sep. 5, 2018).
# A secondary endpoint evaluated the change from baseline in mean monthly performance of daily activities domain score of the AIM-D across the 12-week treatment period. Another secondary endpoint evaluated the change from baseline in mean monthly physical impairment domain score of the AIM-D across the 12-week treatment period. The Activity Impairment in Migraine-Diary (AIM-D) is an 11-item daily diary that is comprised of two domains that evaluate Performance of Daily Activities (PDA; 7 items) and Physical Impairment (PI; 4 items). See Cala et al., “The Activity Impairment in Migraine Diary (AIM-D): A novel migraine-specific patient-reported outcome measure to assess functioning based on activity impairment in episodic and chronic migraine patients”, Cephalalgia 2018; 38:1-115, which is incorporated by reference herein in its entirety. In particular, the AIM-D assesses the impact of migraine on the performance of daily activities and physical impairment using a 6-point rating scale ranging from “Not difficult at all,” “A little difficult,” “Somewhat difficult,” “Very Difficult,” “Extremely Difficult”, and “I could not do it at all.” Items assessed for the AIM-D PDA domain included household chores, errands, leisure activities at home, social or leisure activities outside the home, strenuous physical activities, concentration, and thinking clearly. Items assessed for the AIM-D PI Domain included walking, moving body, bending forward, and moving head. Raw domain scores are recalled to a 0 to 100 scale, where higher scores indicate greater impact of migraine, and reductions from baseline in scores indicate improvement. The AIM-D was collected daily via an electronic diary with the same set of questions administered in headache (HA) and non-headache (NHA) versions. Monthly domain scores are calculated by summing the non-missing daily domain scores (HA and NHA days combined) and dividing the number of non-missing daily scores. The secondary endpoints for AIM-D PDA and PI domain scores were evaluated as change from baseline in mean monthly PDA or PI domain scores of the AIM-D across the 12-week treatment period.
# [2] = tested on: participants with episodic migraine; test: Study B: adverse events (atogepant 60 mg QD vs oral standard of care)
# Method: Study B: A phase 3, multicenter, randomized, open label study was conducted to evaluate the long-term safety and tolerability of oral atogepant for the prevention of migraine in participants with episodic migraine (Study B). The study objective was to evaluate the safety and tolerability of daily treatment with atogepant 60 mg QD when administered over 52 weeks for the prevention of migraine in participants with episodic migraine.
# A total of 744 participants from 106 sites were randomized in a ratio of 5:2 to the following treatment groups: atogepant 60 mg QD or oral standard of care (SOC) migraine prevention medication. The latter arm was included to contextualize safety data from the atogepant-treated participants, and efficacy measures were collected from the atogepant arm only. Efficacy measures were evaluated using the modified intent-to-treat (mITT) population and a mixed-effects model for repeated measures and included changes from baseline in monthly migraine days (MDDs), moderate/severe headache days, and acute medication use days, as well as the proportion of responders based on reductions in MMDs.
# Regardless of which of these options was chosen, the participant was allowed to continue in the study. […]
# [3] = tested on: ALT or AST; test: Study B: postbaseline hepatic laboratory parameters (ALT or AST, potential Hy's Law); conditions: atogepant 60 mg QD or standard of care, safety population
# Excerpt: Cases of alanine aminotransferase/aspartate aminotransferase (ALT/AST) levels ≥3 times the upper limit of normal were reported for 2.4% of participants (n=13/531) treated with atogepant and 3.2% for standard-of-care (n=6/190). No cases of potential Hy's Law were reported. Table 24 provides postbaseline hepatic laboratory parameter values of clinical interest for the safety population.
structure (smiles),measurement,setting,value
C[C@@H]1[C@H](c2c(F)ccc(F)c2F)C[C@H](NC(=O)c2cnc3c(c2)C[C@@]2(C3)C(=O)Nc3ncccc32)C(=O)N1CC(F)(F)F [atogepant],"AIM-D Performance of Daily Activities domain score, LSMD vs. placebo (95% CI)",[1]; 10 mg QD,−1.19
same,"AIM-D Physical Impairment domain score, LSMD vs. placebo (95% CI)",[1]; 10 mg QD,−1.08
same,"AIM-D Performance of Daily Activities domain score, change from baseline, mean (SD)",[1]; 10 mg QD,−7.0
same,"AIM-D Physical Impairment domain score, LS mean change (SE)",[1]; 10 mg QD,−5.11
same,"AIM-D Performance of Daily Activities domain score, Month 1-3, mean (SD)",[1]; 10 mg QD,8.6
same,"AIM-D Performance of Daily Activities domain score, LSMD vs. placebo (95% CI)",[1]; 30 mg QD,−2.54
same,"AIM-D Physical Impairment domain score, LSMD vs. placebo (95% CI)",[1]; 30 mg QD,−1.99
same,"AIM-D Performance of Daily Activities domain score, change from baseline, mean (SD)",[1]; 30 mg QD,−8.9
same,"AIM-D Physical Impairment domain score, LS mean change (SE)",[1]; 30 mg QD,−6.02
same,"AIM-D Performance of Daily Activities domain score, Month 1-3, mean (SD)",[1]; 30 mg QD,8.0
same,"AIM-D Performance of Daily Activities domain score, LSMD vs. placebo (95% CI)",[1]; 60 mg QD,−3.32
same,"AIM-D Physical Impairment domain score, LSMD vs. placebo (95% CI)",[1]; 60 mg QD,−2.46
same,"AIM-D Performance of Daily Activities domain score, change from baseline, mean (SD)",[1]; 60 mg QD,−9.2
same,"AIM-D Physical Impairment domain score, LS mean change (SE)",[1]; 60 mg QD,−6.49
same,"AIM-D Performance of Daily Activities domain score, Month 1-3, mean (SD)",[1]; 60 mg QD,6.6
same,"Death, n (%)","[2]; 52-week open-label, atogepant 60 mg QD or standard of care, safety population",(0.4) %
same,deaths reported (considered not related to atogepant),[2]; atogepant 60 mg QD,Two
same,"Potential Hy's Law (ALT or AST ≥ 3 × ULN and Bilirubin Total ≥ 2 × ULN and ALP < 2 × ULN), n/N1 (%)",[3],(0.0) %
same,"ALT or AST ≥1 × ULN, n/N1 (%)",[3]; postbaseline,(21.1) %
same,"ALT or AST ≥1.5 × ULN, n/N1 (%)",[3]; postbaseline,(8.7) %
same,"ALT or AST ≥2 × ULN, n/N1 (%)",[3]; postbaseline,(4.9) %
same,"ALT or AST ≥3 × ULN, n/N1 (%)",[3]; postbaseline,2.4%
same,"ALT or AST ≥5 × ULN, n/N1 (%)",[3]; postbaseline,(1.3) %
same,"ALT or AST ≥10 × ULN, n/N1 (%)",[3]; postbaseline,(0.6) %
same,"ALT or AST ≥20 × ULN, n/N1 (%)",[3]; postbaseline,(0.0) %
same,"ALT or AST ≥3 × ULN, n/N1 (%)","[3]; postbaseline, listed as Atogepant",(2.4) %
